Reference: patent US20230338473A1, “AN[…] TARGETING IL-2, IL-9, AND IL-15 SIGNALING FOR THE TREATMENT OF CYTOK[…] AND CYTOKINE STORM ASSOCIATED DISORDERS” (priority 2020, published 2023)

What was measured:
[1] = test system: NSG mice transplanted with huPBMCs and infected with LCMV; settings: mouse, in vivo
IL-15 = experiment: PT-18β proliferation assay (WST-1), IL-15; format: cell-based; settings: PT-18β cells, 1 nM cytokine, BNZ-γ as 1:20 or 1:60 dilution of HEK293T supernatant, 2 days
From the text: (§1) For each of the six γc-cytokines, indicator cell lines: NK92, a human NK cell line NK92 available by American Type Culture Collection (ATCC) (catalog # CRL-2407), CTLL-2, a murine CD8 T cells line available from ATCC, and PT-18, a murine mast cell line and its subclone PT-18β, is transfected with human IL-2Rβ gene to make the cells responsive to IL-2 and IL-15 (Tagaya et al., 1996, EMBO J. 15:4928-39), and is used to quantitatively determine the γc-cytokine’s growth-promoting activity (See Current protocols in Immunology from Wiley and Sons for a methodological reference).
(§2) Once the appropriate doses of the cytokine that yield the 50% and 95% maximum response from the indicator cell line is determined, various concentrations (ranging from 1 pM to 10 µM) of the purified or synthesized custom derivative peptide is added to each well containing the cytokine and indicator cells. The reduction in light absorbance at 450 nm is used as an indicator of inhibition of cytokine-stimulated cellular proliferation. Typically, the cells are stimulated by the cytokines such that the absorbance of the well containing indicator cell line and the cytokine is between 2.0 and 3.0, which is reduced to a range of 0.1 to 0.5 by the addition of inhibitory peptides. […]
(§3) The growth-responses of the cells were determined 2 days after the introduction of BNZ-γpeptide and the cytokine using the WST-1 assay. […]

IL-3 = experiment: PT-18β proliferation assay (WST-1), IL-3 negative control; format: cell-based; settings: PT-18β cells, 1 nM cytokine, BNZ-γ as 1:20 or 1:60 dilution of HEK293T supernatant, 2 days
From the text: as §1, §2, §3

STAT5 = experiment: IL-15-mediated tyrosine phosphorylation of STAT5 in PT-18β cells (immunoblot); format: cell-based; settings: PT-18β cells stimulated by IL-15, anti-phospho-STAT5 immunoblot
From the text: In addition to stimulating cellular proliferation, binding of the γc-cytokines to their receptors causes a diverse array of intracellular events. (Rochman et al., 2009, Nat Rev Immunol 9:480-90; Pesu et al., 2005, Immunol Rev 203:127-42). Immediately after the cytokine binds to its receptor, a tyrosine kinase called Jak3 (Janus-kinase 3) is recruited to the receptor at the plasma membrane. This kinase phosphorylates the tyrosine residues of multiple proteins including the γc-subunit, STAT5 (Signal Transducer and Activator of Transcription 5) and subunits of the PI3 (Phosphatidylinositol 3) kinase. Among these, the phosphorylation of STAT5 has been implicated in many studies as being linked to the proliferation of cells initiated by the γc-cytokine (Hennighausen and Robinson, 2008, Genes Dev 22:711-21). In accordance with these published data, whether or not the BNZ-γ peptide inhibits the tyrosine phosphorylation of STAT5 molecule in PT-18β cells stimulated by IL-15 was examined (results shown in FIG. 4).
PT-18β cells were stimulated by IL-15 in the presence or absence of BNZ-γ peptide. Cytoplasmic proteins were extracted from the cells according to a conventional method (Tagaya et al., 1996, EMBO J 15:4928-39). […]

[2] = test system: pro-inflammatory cytokines IL-6, IFN-γ, TNF-α, and MCP-1; settings: mouse, in vivo
IL-4 = experiment: PT-18β proliferation assay (WST-1), IL-4; format: cell-based; settings: PT-18β cells, 1 nM cytokine, BNZ-γ as 1:20 or 1:60 dilution of HEK293T supernatant, 2 days
From the text: as §1, §2, §3

IL-2 = experiment: CTLL-2 proliferation assay (3H-thymidine), IL-2; format: cell-based; settings: CTLL-2 cells, 50 pM IL-2, BNZ-γ 0.1, 1, 10 µM, 20 hours, 3H-thymidine (FIG. 3B)
Description: In a similar assay, the murine cell line CTTL2 was used. In this assay the cells were cultured with 0.5 nM of recombinant IL-2 in RPMI 10% fetal Calf Serum. To set up the proliferation assay, cells were washed from the cytokines 3 times. Cells were seeded at 1 × 10(5) cells per well of a 96-well plate with final concentration of 50 pM of IL-2 or IL-15. Various concentration of BNZ-γ peptide (0.1, 1, and 10 µM) was added to each well. Cells were cultured for 20 hours and in the last 4 hours, ^3H-thymidine was added to the plates. Cells were harvested and radioactivity measured to determine cell proliferation levels.
Inhibition of γc-cytokine-induced proliferation of an indicator cell population by antagonist custom derivative peptides is measured by the 3H-thymidine incorporation assay. Briefly, radiolabeled thymidine (1 microCi) is given to 20-50,000 cells undergoing proliferation in the presence of cytokines. The cell-incorporated radioactivity is measured by trapping cell-bound radioactivity to a glass-fiber filter using a conventional harvester machines (Example, Filtermate Universal Harvester from Perkin-Elmer), after which the radioactivity is measured using a b-counter (Example 1450, Trilux microplate scintillation counter).

IL-9 = experiment: PT-18β proliferation assay (WST-1), IL-9; format: cell-based; settings: PT-18β cells, 1 nM cytokine, BNZ-γ as 1:20 or 1:60 dilution of HEK293T supernatant, 2 days
From the text: as §1, §2, §3

Chain of IL-3 (P01586 27-166): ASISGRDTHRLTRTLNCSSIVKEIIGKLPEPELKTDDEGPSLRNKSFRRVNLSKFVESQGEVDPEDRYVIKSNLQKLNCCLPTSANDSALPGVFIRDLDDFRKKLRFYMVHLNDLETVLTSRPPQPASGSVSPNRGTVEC

Substance: I-K-E-F-L-Q-R-F-I-H-I-V-Q-S-I-I-N-T-S (IKEFLQRFIHIVQSIINTS) [BNZ-γ]
- protection from cytokine storm-induced mortality [1]: 100%
- survival over the 5-week study period [1]: survived the 5-week study period
- growth-promoting activity of IL-15 (IL-15): significantly (p<0.01 Student’s T test) reduced
- growth-promoting activity of IL-3 (a non γc-cytokine) (IL-3): not inhibited
- tyrosine phosphorylation of STAT5 induced by IL-15 (STAT5): markedly reduced
- pro-inflammatory cytokine plasma levels [2]: drastically reduced
- course of IL-6 plasma level over the measurement period ([2]; 2 mg/kg): clear incremental decreases
- course of TNF-α plasma level over the measurement period ([2]; 2 mg/kg): clear incremental decreases
- drop in IFN-γ plasma level versus PBS vehicle control ([2]; 2 mg/kg): 4.5 fold
- drop in IL-6 plasma level versus PBS vehicle control ([2]; 2 mg/kg): 6 fold
- drop in MCP-1 plasma level versus PBS vehicle control ([2]; 2 mg/kg): 7.5 fold
- drop in TNF-α plasma level versus PBS vehicle control ([2]; 2 mg/kg): 7 fold
- cellular proliferation stimulated by IL-4 (IL-4): not affected
- IL-2 induced cellular proliferation (IL-2): suppresses
- growth-promoting activity of IL-9 (IL-9): significantly (p<0.01 Student’s T test) reduced
